Measured values reported in patent US6258790A, “Antisense modulation of integrin α4 expression” (Isis Pharmaceuticals, Inc., priority 1999, dated 2001).

How the values were obtained:
[1] = system: leukocyte trafficking into the central nervous system of EAE mice; experiment: Reduction of leukocyte trafficking into the central nervous system of EAE mice (immunostaining of sections); assay type: in vivo, mouse (CSJLF1); conditions: EAE experiment 4
Description: The pieces were embedded in O.C.T. tissue freezing medium (Ted Pella Inc., Redding, Calif.) on dry ice and methylbutane. Four-micron frozen sections were cut and air dried overnight. The sections were fixed for three minutes in ice-cold acetone and then placed on a Dako Autostainer (Dako Corporation, Carpinteria, Calif.) and treated in the following steps: 5 minutes in 0.03% H2 O2, 5 minutes in 5% donkey serum diluted in PBS, 45 minutes in appropriately diluted primary antibody, 30 minutes in horseradish peroxidase-labeled donkey anti-rat secondary antibody (Jackson Laboratory, Bar Harbor, Me.). Sections were rinsed between treatments with PBS. All the antibodies used were rat anti-mouse from PharMingen (San Diego, Calif.), except BM-8, which was from Bachem Bioscience Inc. (King of Prussia, Pa.). The immunostaining was developed with DAB (Dako Corporation) and counterstained with hematoxylin.

[2] = system: Mouse experimental autoimmune encephalomyelitis (EAE); experiment: Mouse experimental autoimmune encephalomyelitis (EAE) model for multiple sclerosis; assay type: in vivo, mouse (CSJLF-1); conditions: scrambled control; for Peak Severity: score 0 to 5

## 17614 (GCCGACACCCGTTCGTTCGG; phosphorothioate, 2'-MOE/deoxy, further chemistry not given here) [compound 17614]
[1]
  reduction of cellular influx, scrambled control: not effective in reducing cellular influx
[2]; EAE Experiment 3, 1 mg/kg
  Days to Onset: 16.86 days
  Disease Incidence: 7/7
  Peak Severity: 2.14
[2]; EAE Experiment 4, 2 mg/kg SC
  Days to Onset: 14.14 days
  Disease Incidence: 7/7
  Peak Severity: 1.86
[2]; EAE Experiment 5, 2 mg/kg SC
  Days to Onset: 9 days
  Disease Incidence: 6/7
  Peak Severity: 1.71
